# From patent US6605595B1, “Avermectin derivatives” (The Kitasato Institute, priority 1999, dated 2003)
# Assays:
# [1] = system: Adult Musca domestica of WHO(N) species; test: Filter test on flies (Musca domestica), ingestion/contact method; assay type: in vivo; settings: time of reading not stated (1, 3, 5 and 24 hours)
# Experimental: Filter test on flies (Musca domestica)—ingestion/contact method
# Test animals: Adult Musca domestica of WHO(N) species
# In order to prepare a suitable formulation a solution of active compound is prepared froom 20 mg of active compound and 1 ml of DMSO. The active compound solution is diluted with water to the concentration required in each case.
# 2 ml of this preparation of active compound are pipetted onto filter paper discs (of a diameter of 9.5 cm) contained in Petri dishes of the appropriate size. After drying the filter discs, 100 μl of the active compound formulation and 400 μl of a sugar solution are poured onto a block of household sponge cloth measuring 1 cm^2 and placed in a blister well on the filter disc. 25 CO2-intoxicated test animals are transferred to the Petri dishes and covered.
# After 1, 3, 5 and 24 hours the activity of the active compound preparation is determined. 100% means that all of the flies have been destroyed; 0% means that none of the flies have been destroyed.
# Nematospiroides dubius = test: In vivo experiments with Nematospiroides dubius in mice; design: key: 3 represents cure (no parasites detectable); 2 effective (<20% of parasites remaining); 1 trace effect (< of parasites remaining); 0 ineffective (>50% of parasites remaining); settings: orally 4 times, mice infected with N. dubius larvae
# [2] = system: Adult Ctenocephalides felis; test: Test on cat fleas / oral absorption; assay type: in vivo; settings: after 24 hours
# Experimental: Test on cat fleas/oral absorption
# Test animals: Adult Ctenocephalides felis
# Solvent: Dimethylsulfoxide (DMSO)
# 20 μl of this formulation are added to 4 ml of citrated cow's blood and stirred.
# 20 starved adult fleas (of “Georgi” species of Ctenocephalides felis) are introduced into a chamber (of a diameter of 5 cm) which is sealed with gauze at the top and bottom. A metal cylinder, whose base is sealed with parafilm, is placed on the chamber. […] Whereas the blood is heated to 37° C. a temperature of 25° C. is adjusted in the region of the flea chambers. Controls are mixed with the same volume of DMSO without the addition of any of the compounds. The test are repeated three times.
# After 24 hours the mortality is determined in %.
SMILES,activity (100% = all of the flies destroyed) ([1]; 10 ppm),activity (100% = all of the flies destroyed) ([1]; 100 ppm),anthelmintic activity score (scale 0-3) (Nematospiroides dubius; 0.5 mg/kg),anthelmintic activity score (scale 0-3) (Nematospiroides dubius; 1 mg/kg),mortality of fleas ([2]; 10 ppm in citrated cow's blood),mortality of fleas ([2]; 100 ppm in citrated cow's blood)
CCC(C)C1OC2(C=CC1C)CC1CC(CC=C(C)C(OC3CC(OC)C(OC4CC(OC)C(=CCNOC)C(C)O4)C(C)O3)C(C)C=CC=C3COC4C(O)C(C)=CC(C(=O)O1)C34O)O2 (stereo not drawn) [Compound 69],50%,100%,–,–,–,–
CCC(C)C1OC2(C=CC1C)CC1CC(CC=C(C)C(OC3CC(OC)C(OC4CC(OC)C(=CC(=O)O)C(C)O4)C(C)O3)C(C)C=CC=C3COC4C(=NO)C(C)=CC(C(=O)O1)C34O)O2 (stereo not drawn) [Compound 58],–,–,3,3,73%,100%
